From patent publication US20230391778A1, “INDOLIN-2-ONE OR PYRROLO -PYRIDIN -2 -ONE DERIVATIVES” (Hoffmann-La Roche Inc., priority 2014, published 2023)

System: L-687,414-induced hyperlocomotion
Assay: L-687,414-induced hyperlocomotion
Format: in vivo, mouse
Conditions: Dose ip 30 mg/kg, mice, 50 mg/kg s.c. L-687,414
Experimental: The described compounds of formula I reduce L-687,414-induced hyperlocomotion. This was assessed by using a computerized Digiscan 16 Animal Activity Monitoring System (Omnitech Electronics, Columbus, Ohio) to quantify locomotor activity. Animals were kept under a 12 h light/dark cycle and experiments were performed during the light period. Each activity monitoring chamber consisted of a Plexiglas box (41×41×28 cm; W×L×H) with sawdust bedding on the floor surrounded by invisible horizontal and vertical infrared sensor beams. The test boxes were divided by a Plexiglas cross providing each mouse with 20×20 cm of moving space. Cages were connected to a Digiscan Analyzer linked to a computer that constantly collected the beam status information. Records of photocell beam interruptions for individual animals were taken every 5 min over the duration of the experimental session and the sum of the first 6 periods was used as the final parameter. At least 8 mice were used in each treatment group. Compounds were administered either p.o. 15 min before a s.c. injection of 50 mg/kg of L-687,414, or i.p. at the same time as a s.c. injection of 50 mg/kg of L-687,414. Mice were then transferred from their home cage to the recording chambers for a 15-min habituation phase allowing free exploration of the new environment. Horizontal activity was then recorded for a 30-min time period. The % inhibition of L-687,414-induced hyperlocomotion was calculated according to the equation:
((Veh+L-687,414 horizontal activity−drug+L-687,414 horizontal activity)/Veh+L-687,414 horizontal activity)×100
ID50 values, defined as doses of each compound producing 50% inhibition of L-687,414-induced hyperlocomotion, were calculated by linear regression analysis of a dose-response data using an Excel-based computer-fitting program.
As data was not presupposed to be normally distributed, groups treated with test compounds were statistically compared with the control (vehicle-treated) group using one-tailed Mann Whitney U tests. In statistics, the Mann-Whitney U test (also called the Mann-Whitney-Wilcoxon (MWW) or Wilcoxon rank-sum test) is a non-parametric statistical hypothesis test for assessing whether one of two samples of independent observations tends to have larger values than the other. It is one of the most well-known non-parametric significance tests. […] P values given in table 1 are one-tailed since only decreases in locomotion were expected and tested for (Mann, H. B., Whitney, D. R. (1947), “On a Test of Whether one of Two Random Variables is Stochastically Larger than the Other”, Annals of Mathematical Statistics, 18 (1), 50-60).

Row | Compound | L-687,414-induced hyperlocomotion Inhibition, ip [%]
1 | 1-(2-cyclopropylpyrimidin-5-yl)-3,3-dimethyl-6-(2-methylpyrimidin-5-yl)indolin-2-one [Example 116] | 92.8

Same assay, conditions: Mus musculus; Dose ip 30 mg/kg, mice, 50 mg/kg s.c. L-687,414

Row | Compound | inhibition in vivo at 30 mg/kg [%]
2 | Cc1ncc(-c2cc3c(cn2)C(C)(C)C(=O)N3c2ccn(C)n2)cn1 [Example 16, 3,3-Dimethyl-1-(1-methyl-1H-pyrazol-3-yl)-6-(2-methylpyrimidin-5-yl)-1H-pyrrolo[3,2-c]pyridin-2(3H)-one] | 78.3
3 | Cc1cc(N2C(=O)C(C)(C)c3ccc(-n4cnc(C)c4)cc32)ccn1 [Example 22, 3,3-Dimethyl-6-(4-methylimidazol-1-yl)-1-(2-methyl-4-pyridyl)indolin-2-one] | 63.8
4 | Cc1ccc(N2C(=O)C(C)(C)c3ccc(-c4nnc(C)o4)cc32)cn1 [Example 34, 3,3-Dimethyl-6-(5-methyl-1,3,4-oxadiazol-2-yl)-1-(6-methyl-3-pyridyl)indolin-2-one] | 59.7
5 | Cc1ncc(-c2ccc3c(c2)N(c2ccn(C)n2)C(=O)C3(C)C)o1 [Example 49, 3,3-Dimethyl-6-(2-methyloxazol-5-yl)-1-(1-methylpyrazol-3-yl)indolin-2-one] | 47.1
6 | Cc1ncc(-c2ccc3c(c2)N(c2nc(C)n(C)n2)C(=O)C3(C)C)cn1 [Example 78, 1-(1,5-dimethyl-1H-1,2,4-triazol-3-yl)-3,3-dimethyl-6-(2-methylpyrimidin-5-yl)indolin-2-one] | 89.9
7 | Cc1ncc(-c2ccc3c(c2)N(c2ncn(C)n2)C(=O)C3(C)C)cn1 [Example 82, 3,3-dimethyl-1-(1-methyl-1H-1,2,4-triazol-3-yl)-6-(2-methylpyrimidin-5-yl)indolin-2-one] | 89.6
8 | Cc1ncc(-c2ccc3c(c2)N(c2ccncn2)C(=O)C3(C)C)cn1 [Example 93, 3,3-dimethyl-6-(2-methylpyrimidin-5-yl)-1-(pyrimidin-4-yl)indolin-2-one] | 92.4
9 | Cc1cc(-c2cc3c(cn2)C(C)(C)C(=O)N3c2ccc(C)nn2)ccn1 [Example 109, 3,3-dimethyl-1-(6-methylpyridazin-3-yl)-6-(2-methylpyridin-4-yl)-1H-pyrrolo[3,2-c]pyridin-2(3H)-one] | 51.3
10 | Cc1cc(-c2cc3c(cn2)C(C)(C)C(=O)N3c2cnn(C)c2)ccn1 [Example 110, 3,3-dimethyl-1-(1-methyl-1H-pyrazol-4-yl)-6-(2-methylpyridin-4-yl)-1H-pyrrolo[3,2-c]pyridin-2(3H)-one] | 58.5
11 | Cc1cc(-c2cc3c(cn2)C(C)(C)C(=O)N3c2cn(C)cn2)ccn1 [Example 111, 3,3-dimethyl-1-(1-methyl-1H-imidazol-4-yl)-6-(2-methylpyridin-4-yl)-1H-pyrrolo[3,2-c]pyridin-2(3H)-one] | 51

Biological target: T1, mouse ENT-1 transporter (Mus musculus, UniProt Q9JIM1)
T1 construct: expressed in transfected cells
T1 sequence (Q9JIM1 1-460): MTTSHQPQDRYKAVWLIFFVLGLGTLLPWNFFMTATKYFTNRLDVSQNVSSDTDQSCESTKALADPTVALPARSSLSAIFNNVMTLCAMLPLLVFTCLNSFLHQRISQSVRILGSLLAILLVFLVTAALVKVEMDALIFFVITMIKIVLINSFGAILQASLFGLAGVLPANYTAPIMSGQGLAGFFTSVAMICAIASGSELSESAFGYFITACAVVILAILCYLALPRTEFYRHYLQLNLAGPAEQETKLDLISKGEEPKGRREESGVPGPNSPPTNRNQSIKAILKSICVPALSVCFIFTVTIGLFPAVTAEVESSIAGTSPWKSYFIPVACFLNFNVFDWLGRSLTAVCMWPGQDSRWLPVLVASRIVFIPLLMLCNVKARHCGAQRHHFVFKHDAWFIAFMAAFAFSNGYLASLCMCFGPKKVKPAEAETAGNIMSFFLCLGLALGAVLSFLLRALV
Assay: Measure of adenosine transport activity (ENT1 adenosine uptake inhibition)
Format: cell-based
Conditions: stable cells expressing mouse ENT-1, [2,8-3H]-adenosine 6 nM, 20 min
Experimental: To measure adenosine transport activity of ENT-1 mammalian cells, stable cells expressing the mouse ENT-1 transporter were plated on day 1 in 96-well culture plates at the density of 60,000 cells/well, in complete DMEM/F12 medium supplemented with glutamax, 10% FBS and 10 μg/ml puromycin. On day 2, the medium was aspirated and the cells were washed twice with uptake buffer (10 mM Hepes-Tris, pH 7.4 containing 150 mM NaCl, 1 mM CaCl2), 2.5 mM KCl, 2.5 mM MgSO4, 10 mM D-glucose) (UB). For inhibition experiments, cells were then incubated at RT with various concentrations of compounds with 1% DMSO final. Non-specific uptake was defined in the presence of 10 μM S-(4-Nitrobenzyl)-6-thioinosine (NBTI, Sigma Cat #N2255).
The plates were then incubated for 20 min with gentle shaking and the reaction was stopped by aspiration of the mixture and washing (three times) with ice-cold UB. The cells were lysed by the addition of scintillation liquid, shaken 3 hours and the radioactivity in the cells was estimated using a microplates scintillation counter (TopCount NXT, Packard).

Row | Compound | IC50 [nM]
12 | 1-(2-cyclopropylpyrimidin-5-yl)-3,3-dimethyl-6-(2-methylpyrimidin-5-yl)indolin-2-one [Example 116] | 230
13 | Cc1cccc(-c2ccc3c(c2)N(c2cncc(C)n2)C(=O)C3(C)C)n1 [Example 135, 3,3-dimethyl-1-(6-methylpyrazin-2-yl)-6-(6-methyl-2-pyridyl)indolin-2-one] | 2280
14 | Cc1cnc(-c2ccc3c(c2)N(c2ccc(C)nn2)C(=O)C3(C)C)cn1 [Example 137, 3,3-dimethyl-6-(5-methylpyrazin-2-yl)-1-(6-methylpyridazin-3-yl)indolin-2-one] | 4070
15 | Cc1cnc(-c2ccc3c(c2)N(c2ccn(C)n2)C(=O)C3(C)C)cn1 [Example 138, 3,3-dimethyl-1-(1-methyl-1H-pyrazol-3-yl)-6-(5-methylpyrazin-2-yl)indolin-2-one] | 5790
16 | Cc1ncc(-c2ccc3c(c2)N(c2cncc(F)c2)C(=O)C3(C)C)cn1 [Example 142, 1-(5-fluoropyridin-3-yl)-3,3-dimethyl-6-(2-methylpyrimidin-5-yl)indolin-2-one] | 765
17 | Cc1ncc(-c2ccc3c(c2)N(c2cncc(C#N)c2)C(=O)C3(C)C)cn1 [Example 143, 5-(3,3-dimethyl-6-(2-methylpyrimidin-5-yl)-2-oxoindolin-1-yl)nicotinonitrile] | 70
18 | Cc1cc(-c2ccc3c(c2)N(c2cncc(C)n2)C(=O)C3(C)C)ccn1 [Example 144, 3,3-dimethyl-1-(6-methylpyrazin-2-yl)-6-(2-methyl-4-pyridyl)indolin-2-one] | 3510
19 | Cc1cncc(-c2ccc3c(c2)N(c2cncc(C)n2)C(=O)C3(C)C)c1 [Example 145, 3,3-dimethyl-1-(6-methylpyrazin-2-yl)-6-(5-methyl-3-pyridyl)indolin-2-one] | 337
20 | Cc1cncc(N2C(=O)C(C)(C)c3ccc(-c4cncc(F)c4)cc32)n1 [Example 146, 6-(5-fluoro-3-pyridyl)-3,3-dimethyl-1-(6-methylpyrazin-2-yl)indolin-2-one] | 2130

More lines, now with the values ahead:

Row | IC50 [nM] | Compound
21 | 9000 | Cc1cnc(N2C(=O)C(C)(C)c3ccc(-c4ccnc(C)c4)cc32)cn1 [Example 147, 3,3-dimethyl-1-(5-methylpyrazin-2-yl)-6-(2-methyl-4-pyridyl)indolin-2-one]
22 | 402 | Cc1ccc(-c2ccc3c(c2)N(c2cnc(C)cn2)C(=O)C3(C)C)cn1 [Example 148, 3,3-dimethyl-1-(5-methylpyrazin-2-yl)-6-(6-methyl-3-pyridyl)indolin-2-one]
23 | 207 | Cc1cncc(-c2ccc3c(c2)N(c2cnc(C)cn2)C(=O)C3(C)C)c1 [Example 149, 3,3-dimethyl-1-(5-methylpyrazin-2-yl)-6-(5-methyl-3-pyridyl)indolin-2-one]
24 | 1480 | Cc1cnc(N2C(=O)C(C)(C)c3ccc(-c4cncc(F)c4)cc32)cn1 [Example 150, 6-(5-fluoro-3-pyridyl)-3,3-dimethyl-1-(5-methylpyrazin-2-yl)indolin-2-one]
25 | 37 | Cc1cnc(N2C(=O)C(C)(C)c3ccc(-c4cnc(C)c(F)c4)cc32)cn1 [Example 151, 6-(5-fluoro-6-methyl-3-pyridyl)-3,3-dimethyl-1-(5-methylpyrazin-2-yl)indolin-2-one]
26 | 317 | Cc1ncc(-c2ccc3c(c2)N(c2cncc(C(F)(F)F)c2)C(=O)C3(C)C)cn1 [Example 152, 3,3-dimethyl-6-(2-methylpyrimidin-5-yl)-1-(5-(trifluoromethyl)pyridin-3-yl)indolin-2-one]
27 | 291 | Cc1ncc(-c2ccc3c(c2)N(c2cncc(CO)c2)C(=O)C3(C)C)cn1 [Example 153, 1-(5-(hydroxymethyl)pyridin-3-yl)-3,3-dimethyl-6-(2-methylpyrimidin-5-yl)indolin-2-one]
28 | 4470 | Cc1cncc(N2C(=O)C(C)(C)c3ccc(-c4ccnc(C)n4)cc32)n1 [Example 154, 3,3-dimethyl-1-(6-methylpyrazin-2-yl)-6-(2-methylpyrimidin-4-yl)indolin-2-one]
29 | 300 | CCc1cncc(N2C(=O)C(C)(C)c3ccc(-c4cnc(C)nc4)cc32)c1 [Example 156, 1-(5-ethylpyridin-3-yl)-3,3-dimethyl-6-(2-methylpyrimidin-5-yl)indolin-2-one]
